{
  "source": "patent US11413315B2",
  "about": "“Neural stem cell-mediated cancer treatment” (priority 2018, dated 2022)",
  "key": {"[1]": {"tested_on": "OVCAR8 peritoneal tumors", "experiment": "PCR biodistribution of NSCs and virus in peritoneal tumors with or without cisplatin", "type": "in vivo", "details": "2 days after administration, three tumors per mouse", "experimental": "Female NOD-SCID mice (Jackson Labs) that were 6-8 weeks old were inoculated with 2 million OVCAR8.eGFP.ffluc cells via i.p. injection. After 3 weeks, mice (n=3) were administered i.p. 2×10^6 Dil-labeled NSC-CRAd-Survivin-pk7. Two days after NSC injection, tumors were harvested. Three tumors per mouse were digested using proteinase K, DNA was extracted (DNA Extraction from fixed tissues kit, Puragene), quantified using a nanodrop, then amplified by PCR using primers for v-Myc and hexon to test for the presence of NSCs and viral particles respectively. GAPDH was used as a loading control (351 bp). DNA purified from unmodified NSCs and NSC-CRAd-Survivin-pk7 was used as a positive control for PCR amplification of the v-Myc gene (replicon size 170 bp), and hexon (179 bp) respectively. Pure water was used as a negative control. PCR products were analyzed by agarose gel electrophoresis and staining of DNA bands with ethidium bromide. […] Sections (10 μm thick) were collected on positively charged slides (Thermo Fisher Scientific), immunostained for hexon (Goat Anti-Adenovirus FITC Conjugated Polyclonal Antibody, AB1056F, Millipore), counterstained with DAPI (1 ug/mL, Sigma), then imaged using the Zeiss Axio Observer Z1 fluorescence microscope (ZEISS Microscopy). […]"}, "[2]": {"tested_on": "OVCAR8.EGFP flank xenografts", "experiment": "Subcutaneous flank OVCAR8 xenograft model", "type": "in vivo, mouse", "experimental": "Female athymic nude mice 6-8 weeks of age (Charles River) were maintained under specific pathogen-free conditions at the COH Animal Resource Center, and all procedures were reviewed and approved by the COH Animal Care Committee. A subcutaneous flank xenograft model in nude mice was established using an EGFP and firefly luciferase-expressing ovarian cancer cell line, 2×10^6 OVCAR8.EGFP.ffluc. […] The mice were treated for […] with 1 week off in between each cycle. […] Tumor burden was evaluated via caliper measurements twice weekly over a 5-week period.\nMice began treatments approximately 2 weeks after injection of 5 million OVCAR8.EGFP cells, when the tumors were on average 0.5 cm in diameter (Table 3). The mice were treated for two cycles. Each cycle was 2 weeks long, consisting of 1 week on therapy and 1 week off. Tumor burden was evaluated via caliper measurements twice weekly over a 5-week period."}, "[3]": {"tested_on": "OVCAR8.EGFP.ffluc cells", "experiment": "In vitro synergy experiment, Chou-Talalay analysis", "type": "cell-based, human", "details": "cisplatin <1 μM", "experimental": "Tumor cells were plated at 3×10^3 cells per well in 96-well plates. Select wells also received NSC.CRAd-Survivin-pk7 at either a 1:1, 1:10, or 1:100 ratio. […] Cultures were incubated for 3 more days. Upon collection, media were replaced with that containing D-luciferin ([…]), and after a 10-min incubation, the resulting luminescent signal was quantified using a SpectraMax M3 microplate reader (Molecular Devices, CA, USA). Results are expressed as the percentage of surviving cells determined by comparing the luciferase signal of each sample relative to untreated control samples considered 100% viable. […] Each condition was replicated in quadruplet, and the experiment was conducted twice."}, "[4]": {"tested_on": "survivin expression in SKOV3 cell line", "experiment": "RT-PCR analysis of survivin expression after cisplatin, SKOV3", "type": "cell-based, human", "details": "up to 2 days of cisplatin exposure; data not shown"}, "[5]": {"tested_on": "survivin expression in OVCAR8 cell line", "experiment": "RT-PCR analysis of survivin expression after cisplatin, OVCAR8", "type": "cell-based, human", "details": "up to 2 days of cisplatin exposure; data not shown"}},
  "data": [
    {"smiles": "N.N.[Cl][Pt][Cl]", "note": "[cisplatin]", "values": [
      {"measurement": "hexon DNA detected in tumors (virus)", "setting": "[1]", "value": "Neither hexon nor v-myc DNA was detected"},
      {"measurement": "v-myc DNA detected in tumors (NSCs)", "setting": "[1]", "value": "Neither hexon nor v-myc DNA was detected"},
      {"measurement": "tumor volume doubling time after the first treatment", "setting": "[2]; control 7 days", "value": 13, "unit": "days"},
      {"measurement": "tumor volume doubling time after the second treatment", "setting": "[2]; control 15 days", "value": "not significantly different from that of the saline control"},
      {"measurement": "effect of low doses of cisplatin on OVCAR8 tumor cells", "setting": "[3]", "value": "unaffected"},
      {"measurement": "survivin expression after cisplatin exposure", "setting": "[4]", "value": "did not significantly increase"},
      {"measurement": "survivin expression after cisplatin exposure", "setting": "[5]", "value": "did not significantly increase"}
    ]}
  ]
}
